According to US9828592B2, “Chemically modified sophorolipids and uses thereof” (Sophoro Biotechnologies, LLC, priority 2011, dated 2017):

Experiments:
[1] = tested on: Trichoderma reesei (Rut-C30); experiment: Cellulase induction studies in Trichoderma reesei culture, CMC endo-glucanase activity assay; type: cell-based; settings: for CMC (U/mL) at day 5: Example 4, inducer at 2% as carbon source, no glucose
Description: Trichoderma reesei (Rut-C30) was selected as the host for cellulase expression in this Example. To prepare for the cellulase induction studies, a citrate minimal media was first prepared. The media composition described by England et al. in U.S. 2010/0009408 was modified to include 14.4 g/L citric acid, 4 g/L KH2PO4, 6.35 g/L (NH4)2SO4, 2 g/L MgSO4-7H2O, 0.53 g/L CaCl2-2H2O, and trace metal elements at 1 mL/L, which included 5 g/L FeSO4-7H2O, 1.6 g/L MnSO4—H2O, and 1.4 g/L ZnSO4-7H2O. The final pH was adjusted to 5.50 using NaOH.
The Trichoderma reesei (ATCC56765) was used in this Example. This fungal strain was developed as a catabolic de-repressed strain from classic mutagenesis of parent strain NG14 and the wild type QM6A. See Seidl et al., BMC Genomics, 9:327 (2008). To propagate Trichoderma, the freeze-dried stock from ATCC was first dissolved in sterile deionized water, and then transferred onto a potato dextrose agar (PDA) plate (Teknova P0047) using a sterile loop. The PDA plate was maintained at room temperature under white fluorescent light. After approximately seven days, green Trichoderma spores were observed. In addition, 60% (w/v) glucose, 15% (w/v) lactose, and 15% (w/v) cellobiose stocks were prepared and used both as controls and as the carbon source for Trichoderma growth.
To initiate cellulase induction studies for each of the sophorolipid mixtures prepared in Examples 1-3 above, 0.5 mL of glucose stock was first placed into 14 mL of citrate minimal media inside a 125 mL baffled flask. […]
To commence the fermentation, an approximately 1 cm×1 cm square agar plug was removed from the Trichoderma spore-containing PDA agar plate using a sterile loop and placed into the cellulase induction culture media. […] At five days of fermentation, the samples were collected and analyzed for carboxymethylcellulose (CMC) endo-glucanase activity. […] It should be understood that one CMC unit denotes the activity that liberates 1 μmol of reducing sugars (expressed as glucose equivalents) in one minute under the specified conditions of 50° C. and pH 4.8.

[2] = tested on: Trichoderma reesei (Rut-C30); experiment: as above; type: cell-based; settings: for Cellulase activity U/mL at day 3 / Cellulase activity U/mg at day 3: 2% glucose
[3] = tested on: Trichoderma viride; settings: Mandels et al. 1962; cited from earlier work
[4] = Example 8, 1.0 g/L (15 mg/15 mL, 2.92 mM)
[5] = Example 9, 1.0 g/L (15 mg/15 mL, 2.92 mM)
[6] = Example 8, 0.13 g/L (2.0 mg/15 mL, 0.38 mM)
[7] = Example 8, 1.3 g/L (20 mg/15 mL, 3.90 mM)
[8] = Example 9, 0.13 g/L (2.0 mg/15 mL, 0.38 mM)
[9] = Example 9, 1.3 g/L (20 mg/15 mL, 3.90 mM)

Structure (SMILES)	cellulase activity compared to the glucose control ([1]; Example 4, day 5, in words)	CMC (U/mL) at day 5 [1] [U/mL]	Cellulase activity U/mL at day 3 [2, 4] [U/mL]	Cellulase activity U/mg at day 3 [2, 4] [U/mg]	Cellulase activity U/mL at day 3 [2, 5] [U/mL]	Cellulase activity U/mg at day 3 [2, 5] [U/mg]	CMC (U/mL) at day 5 ([2]; Example 5, inducer at 2%, no glucose) [U/mL]	increase in cellulase production compared to cellobiose [3]	Cellulase activity U/mL at day 3 [2, 6] [U/mL]	Cellulase activity U/mg at day 3 [2, 6] [U/mg]	Cellulase activity U/mL at day 3 [2, 7] [U/mL]	Cellulase activity U/mg at day 3 [2, 7] [U/mg]	Cellulase activity U/mL at day 3 [2, 8] [U/mL]	Cellulase activity U/mg at day 3 [2, 8] [U/mg]	Cellulase activity U/mL at day 3 [2, 9] [U/mL]	Cellulase activity U/mg at day 3 [2, 9] [U/mg]
O=C[C@H](O)[C@@H](O)[C@H](O[C@@H]1O[C@H](CO)[C@@H](O)[C@H](O)[C@H]1O)[C@H](O)CO [cellobiose]	marginal cellulase activity	2.05	0.34	0.34	0.34	0.34										
OC[C@H]1O[C@@H](O[C@H]2[C@H](O)[C@@H](O)C(O)O[C@@H]2CO)[C@H](O)[C@@H](O)[C@H]1O (stereo partly drawn) [lactose]		10.1	0.64	0.64	0.64	0.64	8.29									
OC[C@H]1O[C@@H](O[C@@H]2[C@@H](O)[C@H](O)[C@@H](CO)O[C@@H]2O)[C@H](O)[C@@H](O)[C@@H]1O [sophorose, 2-O-beta-D-glucopyranosyl-alpha-D-glucose]								about 2500 times	3.58	26.9	15.0	11.2	3.58	26.9	15.0	11.2
